# ChEMBL document CHEMBL1159029, “An Epoxydon-Derived Ester from a Phoma sp. Pathogenic to Rhubarb” (1992)
# Experiments:
# Sorghum bicolor = test: Phytotoxicity against Sorghum bicolor assessed as brownish-black necrotic lesion area at 50 ug within 48 hrs by detached leaf assay; format: functional
# Rheum rhabarbarum = test: Phytotoxicity against Rhubarb assessed as brownish-black necrotic lesion area at 50 ug up to 48 hrs by detached leaf assay; format: functional
# Sida spinosa = test: Phytotoxicity against Sida spinosa assessed as brownish-black necrotic lesion area at 50 ug within 48 hrs by detached leaf assay; format: functional
# Ipomoea = test: Phytotoxicity against Ipomoea sp. assessed as brownish-black necrotic lesion area at 50 ug within 48 hrs by detached leaf assay; format: functional
# Datura stramonium = test: Phytotoxicity against Datura stramonium assessed as brownish-black necrotic lesion area at 50 ug within 48 hrs by detached leaf assay; format: functional
# Sorghum halepense = test: Phytotoxicity against Sorghum halepense assessed as brownish-black necrotic lesion area at 50 ug within 48 hrs by detached leaf assay; format: functional
# Senna obtusifolia = test: Phytotoxicity against Senna obtusifolia assessed as brownish-black necrotic lesion area at 50 ug within 48 hrs by detached leaf assay; format: functional
# Chenopodium album = test: Phytotoxicity against Chenopodium album assessed as brownish-black necrotic lesion area at 50 ug within 48 hrs by detached leaf assay; format: functional
# Escherichia coli [1] = test: Antimicrobial activity against Escherichia coli DH 5alpha at 0.5 mg/disk by disk assay; format: functional
# Escherichia coli [2] = test: Antimicrobial activity against Escherichia coli DH 5alpha at 1 mg/disk by disk assay; format: functional
# [3] = tested on: Agrobacterium tumefaciens; test: Antimicrobial activity against Agrobacterium tumefaciens C-58 at 0.5 mg/disk by disk assay; format: functional
# [4] = tested on: Agrobacterium tumefaciens; test: Antimicrobial activity against Agrobacterium tumefaciens C-58 at 1 mg/disk by disk assay; format: functional
# [5] = tested on: Curtobacterium flaccumfaciens; test: Antimicrobial activity against Corynebacterium flaccumfaciens CF-20 at 0.5 mg/disk by disk assay; format: functional
# [6] = tested on: Curtobacterium flaccumfaciens; test: Antimicrobial activity against Corynebacterium flaccumfaciens CF-20 at 1 mg/disk by disk assay; format: functional
# [7] = tested on: Pectobacterium carotovorum; test: Antimicrobial activity against Erwinia carotovora EC-14 at 0.5 mg/disk by disk assay; format: functional
# [8] = tested on: Pectobacterium carotovorum; test: Antimicrobial activity against Erwinia carotovora EC-14 at 1 mg/disk by disk assay; format: functional
# Aspergillus flavus [9] = test: Antimicrobial activity against Aspergillus flavus AF3357 at 0.5 mg/disk by disk assay; format: functional, AF-3357
# Aspergillus flavus [10] = test: Antimicrobial activity against Aspergillus flavus AF3357 at 1 mg/disk by disk assay; format: functional, AF-3357
# Penicillium chrysogenum [11] = test: Antimicrobial activity against Penicillium notatum AT-9479 at 0.5 mg/disk by disk assay; format: functional
# Penicillium chrysogenum [12] = test: Antimicrobial activity against Penicillium notatum AT-9479 at 1 mg/disk by disk assay; format: functional
# Colletotrichum acutatum [13] = test: Antimicrobial activity against Colletotrichum acutatum NC 1618 at 0.5 mg/disk by disk assay; format: functional
# Colletotrichum acutatum [14] = test: Antimicrobial activity against Colletotrichum acutatum NC 1618 at 1 mg/disk by disk assay; format: functional
# Phoma = test: Antimicrobial activity against Phoma sp. at 0.5 mg/disk by disk assay; format: functional
# Nasturtium officinale = test: Phytotoxicity against Nasturtium officinale assessed as brownish-black necrotic lesions area at 50 ug within 48 hrs by detached leaf assay; format: functional
# Escherichia coli [15] = test: Antimicrobial activity against Escherichia coli DH 5alpha at 0.25 mg/disk by disk assay; format: functional
# [16] = tested on: Agrobacterium tumefaciens; test: Antimicrobial activity against Agrobacterium tumefaciens C-58 at 0.25 mg/disk by disk assay; format: functional
# [17] = tested on: Curtobacterium flaccumfaciens; test: Antimicrobial activity against Corynebacterium flaccumfaciens CF-20 at 0.25 mg/disk by disk assay; format: functional
# [18] = tested on: Pectobacterium carotovorum; test: Antimicrobial activity against Erwinia carotovora EC-14 at 0.25 mg/disk by disk assay; format: functional
# Aspergillus flavus [19] = test: Antimicrobial activity against Aspergillus flavus AF3357 at 0.25 mg/disk by disk assay; format: functional, AF-3357
# Penicillium chrysogenum [20] = test: Antimicrobial activity against Penicillium notatum AT-9479 at 0.25 mg/disk by disk assay; format: functional
# Colletotrichum acutatum [21] = test: Antimicrobial activity against Colletotrichum acutatum NC 1618 at 0.25 mg/disk by disk assay; format: functional
SMILES,Activity (Sorghum bicolor) [mm2],Activity (Rheum rhabarbarum) [mm2],Activity (Sida spinosa) [mm2],Activity (Ipomoea) [mm2],Activity (Datura stramonium) [mm2],Activity (Sorghum halepense) [mm2],Activity (Senna obtusifolia) [mm2],Activity (Chenopodium album) [mm2],Diameter of inhibition zone (Escherichia coli [1]) [mm],Diameter of inhibition zone [3] [mm],Diameter of inhibition zone [5] [mm],Diameter of inhibition zone [7] [mm],Diameter of inhibition zone (Aspergillus flavus [9]) [mm],Diameter of inhibition zone (Penicillium chrysogenum [11]) [mm],Diameter of inhibition zone (Colletotrichum acutatum [13]) [mm],Diameter of inhibition zone (Phoma) [mm],Activity (Nasturtium officinale) [mm2],Diameter of inhibition zone (Escherichia coli [15]) [mm],Diameter of inhibition zone [16] [mm],Diameter of inhibition zone [17] [mm],other results
Cc1cccc(O)c1C(=O)O,37,55,23,15,48,15,11,27,0,18,16,0,10,12,8,16,17,,,,Diameter of inhibition zone (Escherichia coli [2]): 0 mm; Diameter of inhibition zone [4]: 25 mm; Diameter of inhibition zone [6]: 21 mm; Diameter of inhibition zone [8]: 0 mm; Diameter of inhibition zone (Aspergillus flavus [10]): 17 mm; Diameter of inhibition zone (Penicillium chrysogenum [12]): 18 mm; Diameter of inhibition zone (Colletotrichum acutatum [14]): 22 mm
Cc1cccc(O)c1C(=O)O[C@@H]1C(=O)C(CO)=C[C@@H](O)[C@H]1O,41,18,24,21,9,7,33,13,,,,,,,,,44,,,,
CC1=C[C@@H](O)[C@H]2O[C@H]2C1=O [DESOXYEPOXYDON],69,42,74,64,73,30,51,57,44,56,49,45,22,27,60,30,34,35,43,38,Diameter of inhibition zone [18]: 31 mm; Diameter of inhibition zone (Aspergillus flavus [19]): 15 mm; Diameter of inhibition zone (Penicillium chrysogenum [20]): 15 mm; Diameter of inhibition zone (Colletotrichum acutatum [21]): 40 mm
O=C1C(CO)=C[C@@H](O)[C@H]2O[C@@H]12 [EPOXYDON],31,27,25,51,31,37,17,62,25.3,12,20,17,8,10,12,,41,18,10,12,Diameter of inhibition zone [18]: 9 mm; Diameter of inhibition zone (Aspergillus flavus [19]): 0 mm; Diameter of inhibition zone (Penicillium chrysogenum [20]): 0 mm; Diameter of inhibition zone (Colletotrichum acutatum [21]): 10 mm
